# What was measured:
# Staphylococcus aureus [1] = assay: Antibacterial activity against methicillin-resistant Staphylococcus aureus ATCC 335913; type: functional
# Staphylococcus aureus [2] = assay: Antibacterial activity against Staphylococcus aureus ATCC 29213; type: functional
# [3] = system: Mycolicibacterium smegmatis; assay: Antibacterial activity against Mycobacterium smegmatis MC2 155 ATCC; type: functional
# Staphylococcus aureus [4] = assay: Inhibition of MDR1-mediated methicillin-resistant Staphylococcus aureus ATCC 335913 assessed as fractional inhibitory concentration index after 24 to 48 hrs in presence of ciprofloxacin
# Staphylococcus aureus [5] = assay: Inhibition of MDR1 in Staphylococcus aureus ATCC 29213 assessed as increase in accumulation of kanamycin by EtBr efflux using flow cytometer
# [6] = system: Mycolicibacterium smegmatis MC2 155; assay: Inhibition of MDR1 in Mycobacterium smegmatis ATCC MC2155 assessed as increase in accumulation of ciprofloxacin by EtBr efflux using flow cytometer
# [7] = system: Mycolicibacterium smegmatis MC2 155; assay: Inhibition of MDR1 in Mycobacterium smegmatis ATCC MC2155 assessed as increase in accumulation of kanamycin by EtBr efflux using flow cytometer
# Staphylococcus aureus [8] = assay: Inhibition of MDR1-mediated methicillin-resistant Staphylococcus aureus ATCC 335913 assessed as fractional inhibitory concentration index after 24 to 48 hrs in presence of kanamycin
# [9] = system: Mycolicibacterium smegmatis MC2 155; assay: Inhibition of MDR1-mediated Mycobacterium smegmatis MC2 155 ATCC assessed as fractional inhibitory concentration index after 24 to 48 hrs in presence of ciprofloxacin
# [10] = system: Mycolicibacterium smegmatis MC2 155; assay: Inhibition of MDR1 in Mycobacterium smegmatis ATCC MC2155 assessed as increase in accumulation of ampicillin by EtBr efflux using flow cytometer
# Staphylococcus aureus [11] = assay: Inhibition of MDR1 in Staphylococcus aureus ATCC 29213 assessed as increase in accumulation of ampicillin by EtBr efflux using flow cytometer
# Staphylococcus aureus [12] = assay: Inhibition of MDR1-mediated methicillin-resistant Staphylococcus aureus ATCC 335913 assessed as fractional inhibitory concentration index after 24 to 48 hrs in presence of chloramphenicol
# Staphylococcus aureus [13] = assay: Inhibition of MDR1-mediated […] in Staphylococcus aureus ATCC 29213 assessed as fractional inhibitory concentration index after 24 to 48 hrs in presence of ciprofloxacin
# Staphylococcus aureus [14] = assay: Inhibition of MDR1 in Staphylococcus aureus ATCC 29213 assessed as increase in accumulation of chloramphenicol by EtBr efflux using flow cytometer
# Staphylococcus aureus [15] = assay: Inhibition of MDR1-mediated methicillin-resistant Staphylococcus aureus ATCC 335913 assessed as fractional inhibitory concentration index after 24 to 48 hrs in presence of ampicillin
# Staphylococcus aureus [16] = assay: Inhibition of MDR1 in methicillin-resistant Staphylococcus aureus ATCC 335913 assessed as increase in accumulation of chloramphenicol by EtBr efflux using flow cytometer
# [17] = system: Mycolicibacterium smegmatis MC2 155; assay: Inhibition of MDR1-mediated Mycobacterium smegmatis MC2 155 ATCC assessed as fractional inhibitory concentration index after 24 to 48 hrs in presence of chloramphenicol
# Staphylococcus aureus [18] = assay: Inhibition of MDR1 in Staphylococcus aureus ATCC 29213 assessed as increase in accumulation of ciprofloxacin by EtBr efflux using flow cytometer
# Staphylococcus aureus [19] = assay: Inhibition of MDR1-mediated […] in Staphylococcus aureus ATCC 29213 assessed as fractional inhibitory concentration index after 24 to 48 hrs in presence of chloramphenicol
# Staphylococcus aureus [20] = assay: Inhibition of MDR1-mediated […] in Staphylococcus aureus ATCC 29213 assessed as fractional inhibitory concentration index after 24 to 48 hrs in presence of ampicillin
# Staphylococcus aureus [21] = assay: Inhibition of MDR1 in methicillin-resistant Staphylococcus aureus ATCC 335913 assessed as increase in accumulation of ampicillin by EtBr efflux using flow cytometer
# [22] = system: Mycolicibacterium smegmatis MC2 155; assay: Inhibition of MDR1-mediated Mycobacterium smegmatis MC2 155 ATCC assessed as fractional inhibitory concentration index after 24 to 48 hrs in presence of kanamycin
# Staphylococcus aureus [23] = assay: Inhibition of MDR1-mediated […] in Staphylococcus aureus ATCC 29213 assessed as fractional inhibitory concentration index after 24 to 48 hrs in presence of kanamycin
# [24] = system: Mycolicibacterium smegmatis MC2 155; assay: Inhibition of MDR1-mediated Mycobacterium smegmatis MC2 155 ATCC assessed as fractional inhibitory concentration index after 24 to 48 hrs in presence of ampicillin
# Staphylococcus aureus [25] = assay: Inhibition of MDR1 in methicillin-resistant Staphylococcus aureus ATCC 335913 assessed as increase in accumulation of ciprofloxacin by EtBr efflux using flow cytometer
# Staphylococcus aureus [26] = assay: Inhibition of MDR1 in methicillin-resistant Staphylococcus aureus ATCC 335913 assessed as increase in accumulation of kanamycin by EtBr efflux using flow cytometer
# [27] = system: Mycolicibacterium smegmatis MC2 155; assay: Inhibition of MDR1 in Mycobacterium smegmatis ATCC MC2155 assessed as increase in accumulation of chloramphenicol by EtBr efflux using flow cytometer
compound,measurement,setting,value
CC1(C)S[C@@H]2[C@H](NC(=O)[C@H](N)c3ccccc3)C(=O)N2[C@H]1C(=O)O [AMPICILLIN],MIC,Staphylococcus aureus [1],200 µg/mL
same,MIC,Staphylococcus aureus [2],5 µg/mL
same,MIC,[3],250 µg/mL
O=C(N[C@H](CO)[C@H](O)c1ccc([N+](=O)[O-])cc1)C(Cl)Cl [CHLORAMPHENICOL],MIC,Staphylococcus aureus [1],100 µg/mL
same,MIC,Staphylococcus aureus [2],5 µg/mL
same,MIC,[3],10 µg/mL
Cc1ccc(-c2cc(C(F)(F)F)nn2-c2ccc(S(N)(=O)=O)cc2)cc1 [CELECOXIB],fractional inhibitory concentration index (FICI),Staphylococcus aureus [4],0.312
same,MIC,Staphylococcus aureus [1],> 100 µM
same,inhibition,Staphylococcus aureus [5],Dose-dependent effect
same,inhibition,[6],Dose-dependent effect
same,inhibition,[7],Dose-dependent effect
same,fractional inhibitory concentration index (FICI),Staphylococcus aureus [8],0.312
same,fractional inhibitory concentration index (FICI),[9],0.188
same,inhibition,[10],Dose-dependent effect
same,inhibition,Staphylococcus aureus [11],Dose-dependent effect
same,fractional inhibitory concentration index (FICI),Staphylococcus aureus [12],0.312
same,fractional inhibitory concentration index (FICI),Staphylococcus aureus [13],0.281
same,inhibition,Staphylococcus aureus [14],Dose-dependent effect
same,fractional inhibitory concentration index (FICI),Staphylococcus aureus [15],0.312
same,inhibition,Staphylococcus aureus [16],Dose-dependent effect
same,MIC,Staphylococcus aureus [2],> 100 µM
same,MIC,[3],> 100 µM
same,fractional inhibitory concentration index (FICI),[17],0.562
same,inhibition,Staphylococcus aureus [18],Dose-dependent effect
same,fractional inhibitory concentration index (FICI),Staphylococcus aureus [19],0.281
same,fractional inhibitory concentration index (FICI),Staphylococcus aureus [20],0.281
same,inhibition,Staphylococcus aureus [21],Dose-dependent effect
same,fractional inhibitory concentration index (FICI),[22],0.312
same,fractional inhibitory concentration index (FICI),Staphylococcus aureus [23],0.531
same,fractional inhibitory concentration index (FICI),[24],0.0665
same,inhibition,Staphylococcus aureus [25],Dose-dependent effect
same,inhibition,Staphylococcus aureus [26],Dose-dependent effect
same,inhibition,[27],Dose-dependent effect
NC[C@H]1O[C@H](O[C@H]2[C@H](O)[C@@H](O[C@H]3O[C@H](CO)[C@@H](O)[C@H](N)[C@H]3O)[C@H](N)C[C@@H]2N)[C@H](O)[C@@H](O)[C@@H]1O [KANAMYCIN],MIC,Staphylococcus aureus [1],100 µg/mL
same,MIC,Staphylococcus aureus [2],10 µg/mL
same,MIC,[3],0.5 µg/mL
O=C(O)c1cn(C2CC2)c2cc(N3CCNCC3)c(F)cc2c1=O [CIPROFLOXACIN],MIC,Staphylococcus aureus [1],0.25 µg/mL
same,MIC,Staphylococcus aureus [2],0.25 µg/mL
same,MIC,[3],0.5 µg/mL
